Like-named read-outs stand apart in the source and are kept apart here.

For the assay, the target named is Ashbya gossypii ICL (isocitrate lyase) (Eremothecium gossypii, UniProt O94198). As to the kind of experiment: Colorimetric test of purified isocitrate lyase (ICL) activity with inhibitors. Format: biochemical. The note with it: for inhibition at 1000 µM: read-out: inhibition of ICL activity. The text has this: In order to identify substances exerting an inhibitory effect on ICL, the Ashbya gossypii ICL was first of all purified. The enzyme was isolated and purified after the fungal mycelium had been grown on vegetable oil. […] Approximately 78% of this activity is recovered in dissolved form in the supernatant after centrifuging at 40,000 g. Subsequent fractionation by means of ammonium sulfate precipitation results in a three-fold enrichment of the enzyme. After gel filtration through a Sephacryl S-300 column, the ICL is bound to the cation exchange material Mono S-Sepharose and eluted with NaCl. The resulting preparation is homogeneous by SDS polyacrylamide gel electrophoresis and has a specific activity of 18.4 U/mg.
Sequence of Ashbya gossypii ICL (isocitrate lyase) (O94198 whole entry): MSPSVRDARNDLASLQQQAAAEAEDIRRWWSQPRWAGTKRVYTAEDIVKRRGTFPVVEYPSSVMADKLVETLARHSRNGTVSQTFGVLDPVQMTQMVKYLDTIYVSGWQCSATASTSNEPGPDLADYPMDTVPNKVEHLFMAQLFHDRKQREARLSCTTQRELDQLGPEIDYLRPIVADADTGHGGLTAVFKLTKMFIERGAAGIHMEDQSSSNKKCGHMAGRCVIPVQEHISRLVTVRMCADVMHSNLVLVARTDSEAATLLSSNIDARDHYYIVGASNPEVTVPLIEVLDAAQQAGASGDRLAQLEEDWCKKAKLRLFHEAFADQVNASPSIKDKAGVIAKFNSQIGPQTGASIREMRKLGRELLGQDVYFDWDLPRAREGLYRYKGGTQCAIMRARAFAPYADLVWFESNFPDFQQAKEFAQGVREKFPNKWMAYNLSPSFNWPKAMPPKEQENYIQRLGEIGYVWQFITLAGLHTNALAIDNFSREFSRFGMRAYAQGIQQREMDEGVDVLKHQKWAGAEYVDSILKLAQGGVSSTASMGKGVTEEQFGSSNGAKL
The purified enzyme can be used to measure the effects of substances on its activity in a […] test (Dixon, H. and Kornberg, H. L. (1959), Biochem. J. 72, 3: Assay methods for key enzymes of the glyoxylate cycle). The effects of the tested substances on the enzyme are summarized and depicted in Table 2 and FIG. 1, respectively. Substances to be investigated included those which, as metabolites in the fungal cell, could have an inhibitory effect on the enzyme.

[1] abbreviates: purified enzyme, concentration of 10 mM.

Turning to `O=C(O)[C@H](O)[C@@H](O)[C@H](O)[C@H](O)COP(=O)(O)O` [6-P-gluconate], the “inhibition of ICL activity” value under setting [1] was “greater than 50%”.

Turning to `C=C(CC(=O)O)C(=O)O` [itaconate], the inhibition at 1000 µM was 78%.

In the case of `O=C(O)C(=O)O` [oxalate], under “purified enzyme, concentration of 1 mM”, the inhibition at 1000 µM turned out to be 95%.

Under setting [1], `C=C(OP(=O)(O)O)C(=O)O` [phosphoenolpyruvate] showed an inhibition at 10000 µM greater than 50%.

In general, inhibition refers to how much of the control response was suppressed.
